Laboratory results taken from US20240415819A1, “MACROCYCLIC COMPOUNDS AS PROTEASOME SUBUNIT BETA TYPE-5 INHIBITORS” (Lead Discovery Center GmbH, priority 2021, published 2024).

How the values were obtained:
hPMBC = experiment: Chymotrypsin-like ProteasomeGlo assay in hPBMC; type: cell-based; settings: Homo sapiens; read-out: Pglo hPBMC
Excerpt: Chymotrypsin-like ProteasomeGlo assay in the B-cells isolated from PBMC's following compound addition (IC50). • 1. PBMC's will be isolated from human blood followed by B-cell isolation from the PBMC's using the Miltenyi Isolation Kit. • 2. This experiment will use the Chymotrypsin-like ProteasomeGlo read-out to generate IC50's following compound treatment. • 3. Dilute all compounds 1:100 for the assay. • 4. […] Repeat the DMSO transfer with lane 12. • 5. Lane 12 should not be seeded with any cells. Only medium! • 6. For all steps, make sure the samples and reagents remain cool! • 7. While dealing with the buffy coats, be careful to not let any exposed skin to be in direct contact with the blood.
For the initial steps and to make processing the buffy coats easier, separately process the buffy coats. • a. Cut the tube attached to the buffy coats carefully using a clean, sterile and fresh scalpel. • b. Transfer the blood into 2 individual 50 ml falcons. • c. Add an equal volume of DPBS to the blood in the falcons. • d. Add ˜20 ml of lymphocyte separating medium to two 50 ml falcons. • e. Carefully pour 15-20 ml of the blood+DPBS mix from step c. onto the lymphocyte separating medium from step d. • f. Centrifuge the falcons with the lymphocyte separating medium+blood mix at 800×g for 15 minutes using a swing-out rotor. • g. Following centrifugation, carefully remove the falcons from the centrifuge. • h. The following layers will be observed: • i. Aspirate the plasma layer off carefully without disturbing the different layers. • j. Remove the cell pellet using a pipette into two fresh 50 ml falcons. • k. Fill the falcons with the cells up to 50 ml with DPBS. • l. Centrifuge the falcons at 250×g for 10 minutes using a swing-out rotor (Brake-off). • m. Aspirate the complete DPBS off the cells without disturbing the cell pellet at the bottom of the falcon. • n. Re-suspend the cell pellet in 10 ml of 1×RBC lysis buffer. • o. Incubate the falcons at room temperature in the dark for 10 minutes. • p. After RBC lysis, centrifuge the tubes at 250×g for 10 minutes using a swing-out rotor (brake-off). • (*Note: If the cell pellet is still red or light red, repeat steps n. to p.!) • q. Re-suspend the cell pellet in DPBS up to 50 ml in the falcon. • r. Centrifuge the falcons at 250×g for 10 minutes using a swing-out rotor (Brake-off). • s. Aspirate the DPBS off the cells without disturbing the cell pellet at the bottom of the falcon. • t. Repeat the wash step as described in steps q. to s. 2× times more (total number of washes is 3×). • u. Aspirate the DPBS completely off the cell pellet after the last wash without disturbing the cell pellet. • v. Re-suspend the cell pellet in 20 ml of PBMC cell medium. • w.
• a. Remove the plates with cells from the incubator. • b. Take all the plates including the compound plate, intermediate plate and Staurosporine plate to the ECHO. • c. Click on “Open” in the ECHO software and select the protocol “QLI5_25ul_30 uM-Grenier”. • d. Follow the on-screen prompts and instructions once you click “Start” to insert the compound plate, intermediate plate and destination plates. • e. Change the final number of destination plates on the program. • f. Follow the on-screen prompts and instructions once you click “Start” to load the Staurosporine and destination plates. • g. Once all the compounds, DMSO and Staurosporine have been transferred, place the destination plates in a wet tissue box. • h. Place the destination plates back into the incubator and incubate at 37° C., 5% CO2 for 105 minutes. • i. Re-seal all the compound+Stauro diamond and intermediate plates and store in the dark. Chymotrypsin like ProteasomeGlo Assay • 1. Thaw the components of the ProteasomeGlo assay at room temperature including the ProteasomeGlo Buffer, the lyophilized Luciferin Detection Reagent and the Suc-LLVY-Glo Substrate. • 2. […]

[1] = system: A549 (human lung carcinoma cell line); experiment: Glo assay of A549 cells (Table 3; ProteasomeGlo plating scheme); type: cell-based; settings: Homo sapiens; A549 cells; read-out: PGLo A549
Method in brief: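 Luminescent read-out of cellular chymotrypsin-like proteasome activity: cells exposed to compound 105 min at 37° C., 5% CO2, then given Suc-LLVY-Glo reagent, shaken 2-5 min and kept dark 10-15 min before reading. Values are IC50 [nM].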

| SMILES | IC50 (hPMBC) [nM] | IC50 [1] [nM] |
| --- | --- | --- |
| Cc1ccc2cc1CNC(=O)C(CCc1cnccn1)NC(=O)[C@@H](NC(=O)Cc1ccc(N)cc1F)CC(=O)N1CCCC(CCO2)C1 (stereo partly drawn) [Compound 372, 2-(4-amino-2-fluorophenyl)-N-((9S,12S)-5^4-methyl-8,11,14-trioxo-9-(2-(pyrazin-2-yl)ethyl)-4-oxa-7,10-diaza-1(3,1)-piperidina-5(1,3)-benzenacyclotetradecaphane-12-yl) acetamide] | < 100 | < 100 |
| Cc1ccc2cc1CNC(=O)[C@H](CCc1ccccc1)NC(=O)[C@@H](NC(=O)Cc1nnc(N)[nH]1)CC(=O)N1CCCC(CCO2)C1 (stereo partly drawn) [Compound 340, 2-(5-amino-1H-1,2,4-triazol-3-yl)-N-((9S,12S)-5^4-methyl-8,11,14-trioxo-9-phenethyl-4-oxa-7,10-diaza-1(3,1)-piperidina-5(1,3)-benzenacyclotetradecaphane-12-yl)acetamide] | < 100 | < 100 |
| CC(=O)N[C@H]1CC(=O)N2CCCC(CCOc3ccc(C)c(c3)CNC(=O)C(Cc3ccccc3)NC1=O)C2 (stereo partly drawn) [Compound 558, N-((12S)-9-benzyl-5^4-methyl-8,11,14-trioxo-4-oxa-7,10-diaza-1(3,1)-piperidina-5(1,3)-benzenacyclotetradecaphane-12-yl)acetamide] | < 100 | 100 to 500 |
| Cc1ccc2cc1CNC(=O)[C@H](CCc1ccccc1)NC(=O)[C@@H](NC(=O)Cc1cc(Cl)c(N)c(Cl)c1)CC(=O)N1CCCC(CCO2)C1 (stereo partly drawn) [Compound 320, 2-(4-amino-3,5-dichlorophenyl)-N-((9S,12S)-5^4-methyl-8,11,14-trioxo-9-phenethyl-4-oxa-7,10-diaza-1(3,1)-piperidina-5(1,3)-benzenacyclotetradecaphane-12-yl)acetamide] | < 100 | < 100 |
| Cc1ccc2cc1CNC(=O)C(CCc1ccncc1)NC(=O)[C@@H](NC(=O)OCc1ccccc1)CC(=O)N1CCCC(CCO2)C1 (stereo partly drawn) [Compound 336, benzyl ((12S)-5^4-methyl-8,11,14-trioxo-9-(2-(pyridin-4-yl)ethyl)-4-oxa-7,10-diaza-1(3,1)-piperidina-5(1,3)-benzenacyclotetradecaphane-12-yl)carbamate] | < 100 | < 100 |
| Cc1ccc2cc1CNC(=O)C(c1cnn(C)c1)NC(=O)[C@@H](NC(=O)CN1CCCC1)CC(=O)N1CCCC(CCO2)C1 (stereo partly drawn) [Compound 358, N-((12S)-5^4-methyl-9-(1-methyl-1H-pyrazol-4-yl)-8,11,14-trioxo-4-oxa-7,10-diaza-1(3,1)-piperidina-5(1,3)-benzenacyclotetradecaphane-12-yl)-2-(pyrrolidin-1-yl)acetamide] | < 100 | < 100 |
| Cc1ccc2cc1CNC(=O)[C@H](CCc1ccccc1)NC(=O)[C@@H](NC(=O)Cc1cc(O)on1)CC(=O)N1CCCC(CCO2)C1 (stereo partly drawn) [Compound 335, 2-(5-hydroxyisoxazol-3-yl)-N-((9S,12S)-5^4-methyl-8,11,14-trioxo-9-phenethyl-4-oxa-7,10-diaza-1(3,1)-piperidina-5(1,3)-benzenacyclotetradecaphane-12-yl)acetamide] | < 100 | < 100 |
| Cc1ccc2cc1CNC(=O)[C@H](CCc1ccccc1)NC(=O)[C@@H](NC(=O)OCc1ccccc1)CCC(=O)N1CCC(CCO2)C1 (stereo partly drawn) [Compound 350, benzyl ((9S,12S)-5^4-methyl-8,11,15-trioxo-9-phenethyl-4-oxa-7,10-diaza-1(3,1)-pyrrolidina-5(1,3)-benzenacyclopentadecaphane-12-yl)carbamate] | < 100 | < 100 |
| Cc1ccc2cc1CNC(=O)[C@H](CCc1ccccc1)NC(=O)[C@@H](NC(=O)c1ncccn1)CC(=O)N1CCCC(CCO2)C1 (stereo partly drawn) [Compound 32, N-((9S,12S)-5^4-methyl-8,11,14-trioxo-9-phenethyl-4-oxa-7,10-diaza-1(3,1)-piperidina-5(1,3)-benzenacyclotetradecaphane-12-yl)pyrimidine-2-carboxamide] |  | < 100 |
| Cc1ccc2cc1CNC(=O)[C@H](CCc1ccccc1)NC(=O)[C@@H](NC(=O)c1nc3ccccc3[nH]1)CC(=O)N1CCCC(CCO2)C1 (stereo partly drawn) [Compound 31, N-((9S,12S)-5^4-methyl-8,11,14-trioxo-9-phenethyl-4-oxa-7,10-diaza-1(3,1)-piperidina-5(1,3)-benzenacyclotetradecaphane-12-yl)-1H-benzo[d] imidazole-2-carboxamide] |  | < 100 |

Second part, the molecule after the results:

| IC50 (hPMBC) [nM] | IC50 [1] [nM] | SMILES |
| --- | --- | --- |
| 500 to 1000 | 1000 to 5000 | Cc1ccc2cc1CNC(=O)[C@H](CCc1ccccc1)NC(=O)[C@@H](NC(=O)OCc1ccccc1)CC(=O)N1CCCC3(CC(C3)O2)C1 [Compound 300] |
| < 100 | 100 to 500 | CC(=O)N[C@H]1CC(=O)N2CCCC(CCOc3ccc(C)c(c3)CNC(=O)C(c3cnn(C)c3)NC1=O)C2 (stereo partly drawn) [Compound 552, N-((12S)-5^4-methyl-9-(1-methyl-1H-pyrazol-4-yl)-8,11,14-trioxo-4-oxa-7,10-diaza-1(3,1)-piperidina-5(1,3)-benzenacyclotetradecaphane-12-yl)acetamide] |
| < 100 | 100 to 500 | CC(=O)N[C@H]1CC(=O)N2CCCC(CCOc3ccc(C)c(c3)CNC(=O)C(c3coc(C)n3)NC1=O)C2 (stereo partly drawn) [Compound 553, N-((12S)-5^4-methyl-9-(2-methyloxazol-4-yl)-8,11,14-trioxo-4-oxa-7,10-diaza-1(3,1)-piperidina-5(1,3)-benzenacyclotetradecaphane-12-yl)acetamide] |
| < 100 | < 100 | CC(=O)N[C@H]1CC(=O)N2CCCC(CCOc3ccc(C)c(c3)CNC(=O)C(Cn3c(=O)oc4ccccc43)NC1=O)C2 (stereo partly drawn) [Compound 555, N-((12S)-5^4-methyl-8,11,14-trioxo-9-((2-oxobenzo[d]oxazol-3(2H)-yl)methyl)-4-oxa-7,10-diaza-1(3,1)-piperidina-5(1,3)-benzenacyclotetradecaphane-12-yl)acetamide] |
| < 100 | < 100 | Cc1ccc2cc1CNC(=O)C(c1cnn(C)c1)NC(=O)[C@@H](NC(=O)C1CCCc3ccccc31)CC(=O)N1CCCC(CCO2)C1 (stereo partly drawn) [Compound 360, N-((12S)-5^4-methyl-9-(1-methyl-1H-pyrazol-4-yl)-8,11,14-trioxo-4-oxa-7,10-diaza-1(3,1)-piperidina-5(1,3)-benzenacyclotetradecaphane-12-yl)-1,2,3,4-tetrahydronaphthalene-1-carboxamide] |
| < 100 | 100 to 500 | CO[C@@H](C(=O)N[C@H]1CC(=O)N2CCCC(CCOc3ccc(C)c(c3)CNC(=O)C(c3cnn(C)c3)NC1=O)C2)c1ccccc1 (stereo partly drawn) [Compound 361, (2R)-2-methoxy-N-((12S)-5^4-methyl-9-(1-methyl-1H-pyrazol-4-yl)-8,11,14-trioxo-4-oxa-7,10-diaza-1(3,1)-piperidina-5(1,3)-benzenacyclotetradecaphane-12-yl)-2-phenylacetamide] |
| < 100 | < 100 | Cc1ccc2cc1CNC(=O)[C@H](CCc1ccccc1)NC(=O)[C@@H](NC(=O)Cc1ccccc1C)CC(=O)N1CCCC(CCO2)C1 (stereo partly drawn) [Compound 373, N-((9S,12S)-5^4-methyl-8,11,14-trioxo-9-phenethyl-4-oxa-7,10-diaza-1(3,1)-piperidina-5(1,3)-benzenacyclotetradecaphane-12-yl)-2-(o-tolyl)acetamide] |
